Data reported in US20200237717A1, “Treatment of Staphylococcal and Enterococcal Infections Using Substituted Nitrostyrene Compounds” (Opal Biosciences Limited, priority 2017, published 2020).
In brackets after ≈: the same amount, converted by molar mass. Where two headings read alike, the source gives them in different places.

Key:
[1] = system: MRSA isolate Sa375 (VISA); assay: microbe, parasite or virus in culture; type: cell-based, Staphylococcus aureus; details: for MIC: Staphylococcus aureus
[2] = system: VSSA MRSA isolates (n = 43); details: VSSA isolates (n = 43), BMD, previously determined; cited from earlier work
[3] = system: hVISA MRSA isolates (n = 54); details: hVISA isolates (n = 54), BMD, previously determined; cited from earlier work
[4] = system: VISA MRSA isolates (n = 6); details: VISA isolates (n = 6), BMD, previously determined; cited from earlier work
[5] = system: vancomycin intermediate-resistant S. aureus (VISA); details: MRSA isolate reported in Japan in 1997 (VISA); cited from earlier work
[6] = system: vancomycin-resistant S. aureus (VRSA) strain; details: first VRSA strain, United States 2002; cited from earlier work
[7] = system: MRSA bacteraemia isolates; assay: BDM-I MIC by broth microdilution (BMD), collection of clinical MRSA isolates; type: cell-based, Staphylococcus aureus; details: clinical MRSA isolates with varying vancomycin susceptibilities
Experimental: (§1) One-hundred and three MRSA bacteraemia isolates (from Liverpool Hospital, Sydney, Australia) were selected for this study. BDM-I MICs were determined by the broth microdilution method (BMD) as described by the CLSI (Clinical Laboratory Standards Institute, Methods for Dilution Antimicrobial Susceptibility Tests for Bacteria That Grow Aerobically: Ninth Edition: Approved Standard M07-A9, CLSI, Wayne, Pa., USA, 2012) using CAMHB (Oxoid-Thermo Fisher, Hampshire, UK). BDM-I concentrations ranged from 1 to 10 mg/L in 1 mg/L increments. All isolates had previously undergone vancomycin MIC testing and hVISA/VISA characterization (van Hal, Barbagiannakos et al., 2011; van Hal, Jones et al., 2011). Statistical analysis to determine correlation between variables was completed using the Spearman's test; with P<0.05 considered significant. Calculations were completed using SPSS statistical software (version 22.0; SPSS Inc, Chicago, Ill., USA).
(§2) The BDM-I MICs for a collection of clinical MRSA isolates, with varying vancomycin susceptibilities, were determined using the BMD method.

[8] = system: VSSA MRSA isolates (n = 43); assay: MIC by BMD, MRSA isolates of VSSA phenotype; type: cell-based; details: Staphylococcus aureus, VSSA isolates (n = 43)
Experimental: as §1, §2

[9] = system: hVISA MRSA isolates (n = 54); assay: MIC by BMD, MRSA isolates of hVISA phenotype; type: cell-based; details: Staphylococcus aureus, hVISA isolates (n = 54)
Experimental: as §1, §2

[10] = system: VISA MRSA isolates (n = 6); assay: MIC by BMD, MRSA isolates of VISA phenotype; type: cell-based; details: Staphylococcus aureus, VISA isolates (n = 6)
Experimental: as §1, §2

[11] = system: vanB VRE clinical isolates; assay: BDM-I and vancomycin checkerboard assay (broth microdilution, FICI); type: cell-based, Enterococcus faecium; details: vancomycin combined with BDM-I at fixed concentrations, vanB VRE isolate; FICI ≤0.5 indicates synergy
[12] = system: many Gram-negative and most Gram-positive bacterial species as well as many fungal species; details: literature report; cited from earlier work
[13] = system: Mycobacterium tuberculosis; details: literature report; cited from earlier work
Plasmodium falciparum = details: literature report; cited from earlier work
mice = details: mouse, in vivo; cited from earlier work
chickens = details: in vivo; cited from earlier work
[14] = in vivo; cited from earlier work

CN[C@H](CC(C)C)C(=O)N[C@H]1C(=O)N[C@@H](CC(N)=O)C(=O)N[C@H]2C(=O)N[C@H]3C(=O)N[C@H](C(=O)N[C@H](C(=O)O)c4cc(O)cc(O)c4-c4cc3ccc4O)[C@H](O)c3ccc(c(Cl)c3)Oc3cc2cc(c3O[C@@H]2O[C@H](CO)[C@@H](O)[C@H](O)[C@H]2O[C@H]2C[C@](C)(N)[C@H](O)[C@H](C)O2)Oc2ccc(cc2Cl)[C@H]1O [Vancomycin]
MIC ([1]; read-out: Vancomycin MIC): 4 µg/mL (≈ 2.76 µM)
Vancomycin MIC50 [2]: 0.58 mg/L
Vancomycin MIC (average) [2]: 1.16 mg/L
Vancomycin MIC50 [3]: 0.96 mg/L
Vancomycin MIC (average) [3]: 1.92 mg/L
Vancomycin MIC50 [4]: 1.1 mg/L
Vancomycin MIC (average) [4]: 2.2 mg/L
vancomycin MIC [5]: 3 to 8 µg/mL
vancomycin MIC [6]: greater than 100 μg/mL

C/C(=C\c1ccc2c(c1)OCO2)[N+](=O)[O-] [BDM-I, 3,4-methylenedioxy-β-methyl-β-nitrostyrene]
BDM-I MIC (range over isolates) [7]: 2 to 5 mg/L
MIC50 ([8]; read-out: BDM-I MIC50): 1.71 µg/mL (≈ 8.25 µM)
MIC ([8]; read-out: BDM-I MIC (average)): 3.42 µg/mL (≈ 16.5 µM)
MIC50 ([9]; read-out: BDM-I MIC50): 1.64 µg/mL (≈ 7.92 µM)
MIC ([9]; read-out: BDM-I MIC (average)): 3.28 µg/mL (≈ 15.8 µM)
MIC50 ([10]; read-out: BDM-I MIC50): 1.25 µg/mL (≈ 6.03 µM)
MIC ([10]; read-out: BDM-I MIC (average)): 2.5 µg/mL (≈ 12.1 µM)
BDM-I MIC increase ([1]; Sa375, day 110 vs start, 21 out of 21 colonies): 3 mg/L
MIC ([1]; read-out: BDM-I MIC, Sa375 before passage in BDM-I): 2 µg/mL (≈ 9.65 µM)
MIC ([1]; read-out: BDM-I MIC, Sa375 day 110 colonies (21 out of 21)): 5 µg/mL (≈ 24.1 µM)
Interaction with vancomycin (checkerboard, FICI) [11]: synergistic activity
Antimicrobial spectrum [12]: broadly microbicidal
Activity against Mycobacterium tuberculosis [13]: active
Activity against Plasmodium falciparum (Plasmodium falciparum): active
Oral toxicity (mice): low oral toxicity
Oral toxicity (chickens): low oral toxicity
Absorption from the intestinal tract [14]: poorly absorbed
